Laboratory results taken from paper PMC3827223, “Bioorthogonal Small Molecule Imaging Agents Allow Single-Cell Imaging of MET” (PLoS ONE, 2013).

Legend:
[1] = system: MET phosphorylation (Y1234/1235) in OVCA429 cells; test: Western blot of HGF-stimulated MET phosphorylation in OVCA429 cells; format: cell-based, human; conditions: for effect on MET phosphorylation: OVCA429 cells, 0.1, 0.5 or 1 μM pre-treatment 1 hr, 100 ng/ml HGF stimulation, Western blot densitometry
Protocol: Cells were serum-starved in media containing 0.1% fetal bovine serum ~16 hrs before the assay. […] Phosphorylation was then stimulated with 100 ng/ml HGF diluted in RPMI with 1 mg/ml BSA for 5 min at 37°C. Cell lysates were then prepared and run on a gel as described above. Western blot analysis was performed as described above using the MET and phospho-MET primary antibodies (1:1000). Total MET and phospho-MET expression was quantified using densitometry (ImageJ).

recombinant human MET = recombinant human MET (Homo sapiens, UniProt P08581); test: z'-LYTE FRET kinase activity assay, MET
recombinant human MET, sequence (P08581 25-1390): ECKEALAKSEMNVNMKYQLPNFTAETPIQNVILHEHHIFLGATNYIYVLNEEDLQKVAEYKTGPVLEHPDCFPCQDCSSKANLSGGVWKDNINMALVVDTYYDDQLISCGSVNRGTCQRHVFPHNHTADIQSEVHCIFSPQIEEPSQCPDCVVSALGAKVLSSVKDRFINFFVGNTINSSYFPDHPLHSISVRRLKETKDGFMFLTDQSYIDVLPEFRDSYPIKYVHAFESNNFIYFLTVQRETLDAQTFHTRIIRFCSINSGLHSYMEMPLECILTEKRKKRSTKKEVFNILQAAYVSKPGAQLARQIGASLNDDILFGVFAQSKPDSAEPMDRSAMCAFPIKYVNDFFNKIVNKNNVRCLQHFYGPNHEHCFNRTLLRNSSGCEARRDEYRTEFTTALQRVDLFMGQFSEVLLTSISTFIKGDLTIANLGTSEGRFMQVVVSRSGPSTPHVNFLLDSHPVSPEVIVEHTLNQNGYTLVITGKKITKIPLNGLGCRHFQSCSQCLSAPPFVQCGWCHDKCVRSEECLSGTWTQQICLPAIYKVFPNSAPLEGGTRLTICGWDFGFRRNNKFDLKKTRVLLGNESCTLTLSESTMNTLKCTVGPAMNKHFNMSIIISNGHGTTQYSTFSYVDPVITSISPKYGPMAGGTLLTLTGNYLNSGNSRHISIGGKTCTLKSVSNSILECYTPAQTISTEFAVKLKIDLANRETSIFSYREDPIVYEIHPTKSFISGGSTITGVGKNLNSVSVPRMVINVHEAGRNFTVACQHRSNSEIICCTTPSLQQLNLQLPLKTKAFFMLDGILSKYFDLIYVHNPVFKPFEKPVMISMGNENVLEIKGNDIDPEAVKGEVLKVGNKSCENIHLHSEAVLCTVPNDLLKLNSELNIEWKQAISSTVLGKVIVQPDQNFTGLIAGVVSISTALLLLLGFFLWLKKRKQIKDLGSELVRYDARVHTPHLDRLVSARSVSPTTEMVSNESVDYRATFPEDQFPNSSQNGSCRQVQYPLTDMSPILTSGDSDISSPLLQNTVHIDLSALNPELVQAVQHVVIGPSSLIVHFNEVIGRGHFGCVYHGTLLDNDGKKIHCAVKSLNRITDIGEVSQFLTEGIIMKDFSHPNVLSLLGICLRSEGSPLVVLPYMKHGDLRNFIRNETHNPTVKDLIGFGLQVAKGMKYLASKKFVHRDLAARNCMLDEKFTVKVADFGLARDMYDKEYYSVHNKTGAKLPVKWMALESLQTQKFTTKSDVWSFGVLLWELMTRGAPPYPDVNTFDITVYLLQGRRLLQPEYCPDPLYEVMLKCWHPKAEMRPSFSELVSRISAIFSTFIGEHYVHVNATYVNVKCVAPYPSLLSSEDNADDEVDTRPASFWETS
Protocol: (§1) The Tyr6 peptide kit was used to measure MET, RON, and AXL activity. The Tyr4 peptide kit was used for PDGFRα and the Tyr1 peptide kit was used to measure KDR activity. All assays were run in accordance with the manufacturer’s instructions, with minor modification. Briefly, MET, RON, and KDR were used at 0.2 μg/ml, 0.8 μg/ml, and 0.7 μg/ml, respectively. The kinase reaction buffer for MET, RON, and KDR was supplemented with 0.67% DMSO. AXL was used at 1.5 μg/ml and the reaction buffer was supplemented with 0.01% sodium azide and 0.67% DMSO. PDGFRα was used at 2.5 μg/ml and the reaction buffer was supplemented with 1mM DTT, 2mM MnCl2, and 0.67% DMSO. Inhibitors were prepared by 4-fold serial dilution at 75X the final concentration in 100% DMSO (8 μM to 0.1 nM). This stock was then diluted to 3X the final concentration in kinase reaction buffer. 5 μl of the 3X stock was added to the final 15 μl reaction volume. Both the z´-LYTE control phosho-peptide and the z´-LYTE peptide were used at a final concentration of 2 μM. […] Development reagent was then incubated for 1 hour at room temperature. […] IC50 values were obtained by fitting the dose-response curves using Prism 6 (GraphPad).

recombinant human AXL = target: T1, recombinant human AXL (Homo sapiens, UniProt P30530); test: z'-LYTE FRET kinase activity assay, AXL
T1 sequence (P30530 26-894): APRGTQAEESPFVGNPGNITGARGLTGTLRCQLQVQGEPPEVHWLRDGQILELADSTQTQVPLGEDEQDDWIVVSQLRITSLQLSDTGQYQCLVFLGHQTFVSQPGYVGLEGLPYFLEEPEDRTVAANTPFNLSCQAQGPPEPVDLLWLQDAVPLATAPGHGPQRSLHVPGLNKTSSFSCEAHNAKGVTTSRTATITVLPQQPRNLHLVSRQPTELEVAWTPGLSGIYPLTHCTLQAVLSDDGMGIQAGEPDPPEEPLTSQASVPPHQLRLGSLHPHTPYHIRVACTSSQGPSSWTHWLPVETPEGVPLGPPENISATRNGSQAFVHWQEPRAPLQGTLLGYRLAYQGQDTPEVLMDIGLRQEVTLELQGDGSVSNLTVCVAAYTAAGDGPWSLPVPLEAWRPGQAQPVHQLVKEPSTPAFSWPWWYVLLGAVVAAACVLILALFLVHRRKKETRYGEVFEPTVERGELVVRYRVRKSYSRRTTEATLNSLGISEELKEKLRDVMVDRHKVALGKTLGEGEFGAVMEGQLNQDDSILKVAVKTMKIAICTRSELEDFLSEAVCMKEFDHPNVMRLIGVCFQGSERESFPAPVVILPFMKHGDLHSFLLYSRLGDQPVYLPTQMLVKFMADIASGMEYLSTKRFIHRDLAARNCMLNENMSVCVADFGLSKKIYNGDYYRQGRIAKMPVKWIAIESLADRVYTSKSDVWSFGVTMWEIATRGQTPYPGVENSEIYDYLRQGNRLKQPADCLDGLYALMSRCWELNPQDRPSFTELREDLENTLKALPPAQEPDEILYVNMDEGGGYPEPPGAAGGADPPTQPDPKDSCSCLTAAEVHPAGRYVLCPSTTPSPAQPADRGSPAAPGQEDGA
Protocol: as §1

recombinant Human RON = recombinant Human RON (Homo sapiens, UniProt Q04912); test: z'-LYTE FRET kinase activity assay, RON
recombinant Human RON, sequence (Q04912 25-1400): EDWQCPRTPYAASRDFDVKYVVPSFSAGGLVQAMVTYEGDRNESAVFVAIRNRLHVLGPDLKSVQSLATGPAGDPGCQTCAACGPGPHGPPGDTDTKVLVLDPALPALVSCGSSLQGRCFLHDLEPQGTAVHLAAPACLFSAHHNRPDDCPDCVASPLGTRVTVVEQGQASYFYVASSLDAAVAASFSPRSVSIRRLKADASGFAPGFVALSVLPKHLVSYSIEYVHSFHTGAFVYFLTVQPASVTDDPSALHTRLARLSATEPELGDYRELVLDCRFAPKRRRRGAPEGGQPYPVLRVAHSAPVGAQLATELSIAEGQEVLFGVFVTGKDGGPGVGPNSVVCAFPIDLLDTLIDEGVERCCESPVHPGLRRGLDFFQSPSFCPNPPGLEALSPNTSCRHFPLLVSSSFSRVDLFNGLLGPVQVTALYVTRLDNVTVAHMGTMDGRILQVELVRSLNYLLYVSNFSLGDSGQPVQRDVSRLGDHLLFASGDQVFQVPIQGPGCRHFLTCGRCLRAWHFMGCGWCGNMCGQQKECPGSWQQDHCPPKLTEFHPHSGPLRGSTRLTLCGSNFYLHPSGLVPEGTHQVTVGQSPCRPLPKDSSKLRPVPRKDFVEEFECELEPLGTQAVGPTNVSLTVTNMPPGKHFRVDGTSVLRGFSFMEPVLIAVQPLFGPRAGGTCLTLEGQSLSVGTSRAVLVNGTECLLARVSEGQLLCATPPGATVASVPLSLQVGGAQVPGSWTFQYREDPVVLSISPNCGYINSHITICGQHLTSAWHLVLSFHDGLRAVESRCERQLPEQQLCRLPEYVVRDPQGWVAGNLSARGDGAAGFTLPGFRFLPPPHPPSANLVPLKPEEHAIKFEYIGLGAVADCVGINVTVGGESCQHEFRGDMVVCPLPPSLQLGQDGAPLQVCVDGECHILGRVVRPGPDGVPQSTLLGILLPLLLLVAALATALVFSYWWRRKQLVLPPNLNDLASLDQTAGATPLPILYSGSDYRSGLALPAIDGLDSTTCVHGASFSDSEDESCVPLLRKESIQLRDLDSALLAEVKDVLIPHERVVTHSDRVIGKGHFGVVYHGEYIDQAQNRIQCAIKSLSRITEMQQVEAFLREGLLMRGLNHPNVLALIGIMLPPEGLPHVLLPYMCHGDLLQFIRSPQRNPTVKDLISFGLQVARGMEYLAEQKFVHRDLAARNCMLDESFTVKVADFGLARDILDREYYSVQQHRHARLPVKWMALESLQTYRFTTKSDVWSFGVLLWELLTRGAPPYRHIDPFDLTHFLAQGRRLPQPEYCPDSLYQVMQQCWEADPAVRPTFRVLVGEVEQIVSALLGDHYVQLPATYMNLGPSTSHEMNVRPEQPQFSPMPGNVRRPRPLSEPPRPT
Protocol: as §1

recombinant Human KDR = recombinant Human KDR (Homo sapiens, UniProt P35968); test: z'-LYTE FRET kinase activity assay, KDR
recombinant Human KDR, sequence (P35968 20-1356): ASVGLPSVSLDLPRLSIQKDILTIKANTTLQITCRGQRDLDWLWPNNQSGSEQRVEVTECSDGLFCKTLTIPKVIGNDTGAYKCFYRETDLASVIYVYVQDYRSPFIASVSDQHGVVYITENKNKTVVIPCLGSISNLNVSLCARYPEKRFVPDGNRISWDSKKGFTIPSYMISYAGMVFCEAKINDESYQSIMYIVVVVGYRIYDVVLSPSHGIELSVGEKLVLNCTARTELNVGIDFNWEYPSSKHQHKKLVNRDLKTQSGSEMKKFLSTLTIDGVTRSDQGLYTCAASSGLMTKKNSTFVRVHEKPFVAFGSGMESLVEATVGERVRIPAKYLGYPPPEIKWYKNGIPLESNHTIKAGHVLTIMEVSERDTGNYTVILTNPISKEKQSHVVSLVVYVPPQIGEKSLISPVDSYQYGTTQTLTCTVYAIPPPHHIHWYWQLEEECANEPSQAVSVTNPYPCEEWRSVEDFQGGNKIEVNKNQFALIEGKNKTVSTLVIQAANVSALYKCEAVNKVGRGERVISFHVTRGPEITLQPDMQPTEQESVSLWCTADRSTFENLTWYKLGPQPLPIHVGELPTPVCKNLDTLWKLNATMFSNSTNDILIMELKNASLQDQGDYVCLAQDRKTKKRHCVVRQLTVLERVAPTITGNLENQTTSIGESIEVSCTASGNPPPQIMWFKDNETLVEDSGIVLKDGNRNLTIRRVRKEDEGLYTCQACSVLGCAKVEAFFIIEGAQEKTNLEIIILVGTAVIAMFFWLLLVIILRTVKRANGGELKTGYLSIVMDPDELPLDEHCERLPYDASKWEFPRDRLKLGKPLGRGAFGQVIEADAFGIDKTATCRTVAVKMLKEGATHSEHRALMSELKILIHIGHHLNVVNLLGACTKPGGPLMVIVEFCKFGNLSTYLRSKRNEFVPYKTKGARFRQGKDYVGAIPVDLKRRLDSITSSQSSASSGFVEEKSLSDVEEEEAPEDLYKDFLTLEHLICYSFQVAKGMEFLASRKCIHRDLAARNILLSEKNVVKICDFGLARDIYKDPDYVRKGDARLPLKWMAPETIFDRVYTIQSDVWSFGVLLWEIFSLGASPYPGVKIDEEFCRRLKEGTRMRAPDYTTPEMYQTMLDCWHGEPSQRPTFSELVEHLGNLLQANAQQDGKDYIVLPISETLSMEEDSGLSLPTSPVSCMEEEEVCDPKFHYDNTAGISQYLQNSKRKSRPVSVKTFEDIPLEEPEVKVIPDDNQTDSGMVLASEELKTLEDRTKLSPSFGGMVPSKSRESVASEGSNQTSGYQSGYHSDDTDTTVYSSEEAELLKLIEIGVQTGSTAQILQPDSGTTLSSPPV
Protocol: as §1

recombinant Human PDGFRα = recombinant Human PDGFRα (Homo sapiens, UniProt P16234); test: z'-LYTE FRET kinase activity assay, PDGFRα
recombinant Human PDGFRα, sequence (P16234 24-1089): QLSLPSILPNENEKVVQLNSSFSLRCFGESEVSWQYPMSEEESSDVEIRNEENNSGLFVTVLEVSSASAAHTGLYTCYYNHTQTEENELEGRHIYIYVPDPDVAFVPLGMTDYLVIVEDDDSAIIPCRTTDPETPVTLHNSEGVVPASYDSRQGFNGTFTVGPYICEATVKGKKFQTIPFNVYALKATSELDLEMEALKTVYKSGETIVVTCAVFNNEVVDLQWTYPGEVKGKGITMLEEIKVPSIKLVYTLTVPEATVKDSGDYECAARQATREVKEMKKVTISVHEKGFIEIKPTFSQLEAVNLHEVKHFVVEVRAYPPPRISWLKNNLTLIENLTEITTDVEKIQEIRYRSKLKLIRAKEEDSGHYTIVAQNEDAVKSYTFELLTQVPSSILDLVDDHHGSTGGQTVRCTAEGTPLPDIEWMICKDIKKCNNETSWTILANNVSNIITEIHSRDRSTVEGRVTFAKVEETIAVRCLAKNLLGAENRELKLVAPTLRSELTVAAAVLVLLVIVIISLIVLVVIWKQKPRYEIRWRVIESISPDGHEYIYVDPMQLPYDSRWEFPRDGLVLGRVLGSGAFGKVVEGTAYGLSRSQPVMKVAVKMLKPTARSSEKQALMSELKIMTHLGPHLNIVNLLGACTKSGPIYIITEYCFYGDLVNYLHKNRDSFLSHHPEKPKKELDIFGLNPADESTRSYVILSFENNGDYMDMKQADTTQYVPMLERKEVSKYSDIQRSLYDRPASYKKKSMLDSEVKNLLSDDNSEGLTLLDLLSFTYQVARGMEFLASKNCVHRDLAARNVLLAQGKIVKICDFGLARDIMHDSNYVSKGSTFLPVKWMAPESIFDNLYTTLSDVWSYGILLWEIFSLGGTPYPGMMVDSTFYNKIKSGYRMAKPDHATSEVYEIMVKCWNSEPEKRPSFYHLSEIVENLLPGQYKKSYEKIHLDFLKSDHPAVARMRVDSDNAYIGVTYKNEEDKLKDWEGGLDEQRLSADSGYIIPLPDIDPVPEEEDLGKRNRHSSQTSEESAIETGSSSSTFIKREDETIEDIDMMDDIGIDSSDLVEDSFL
Protocol: as §1

[2] = Foretinib-TCO (11) IC50 value divided by Foretinib IC50 value

## COc1cc2c(Oc3ccc(NC(=O)C4(C(=O)Nc5ccc(F)cc5)CC4)cc3F)ccnc2cc1OCCCN1CCN(C(=O)CCc2ccc3n2[B-](F)(F)[N+]2=C(C)C=C(C)C2=C3)CC1 [Foretinib-BODIPY-FL, 5,5-difluoro-7-(3-(4-(3-((4-(2-fluoro-4-(1-((4-fluorophenyl)carbamoyl)cyclopropanecarboxamido)phenoxy)-6-methoxyquinolin-7-yl)oxy)propyl)piperazin-1-yl)-3-oxopropyl)-1,3-dimethyl-5H-dipyrrolo[1,2-c:2',1'-f][1,3,2]diazaborinin-4-ium-5-uide]
[1]
  effect on MET phosphorylation: decrease in MET phosphorylation
Recombinant human MET
  IC50: 0.697 µM
Recombinant human MET; from 28.7 nM to 697.4 nM
  change of MET IC50 relative to Foretinib (loss in drug activity): over 24 fold

## O=C(NCCn1cc(-c2cnc3nnn(Cc4ccc5ncccc5c4)c3n2)cn1)OC1CC/C=C/CCC1 (centres unmarked) [PF04217903-TCO, (E)-cyclooct-4-en-1-yl (2-(4-(1-(quinolin-6-ylmethyl)-1H-[1,2,3]triazolo[4,5-b]pyrazin-6-yl)-1H-pyrazol-1-yl)ethyl)carbamate]
Recombinant human MET
  IC50: 0.00148 µM

## COc1cc2c(Oc3ccc(NC(=O)C4(C(=O)Nc5ccc(F)cc5)CC4)cc3F)ccnc2cc1OCCCN1CCOCC1 [Foretinib, N1’-[3-fluoro-4-[[6-methoxy-7-(3-morpholinopropoxy)-4-quinolinyl]oxy]phenyl]-N1-(4-fluorophenyl)cyclopropane-1,1-dicarboxamide, reference compound]
[1]
  effect on MET phosphorylation: complete decrease in MET phosphorylation

## COc1cc2c(Oc3ccc(NC(=O)C4(C(=O)Nc5ccc(F)cc5)CC4)cc3F)ccnc2cc1OCCCN1CCN(C(=O)OC2CC/C=C/CCC2)CC1 (centres unmarked) [Foretinib-TCO, (E)-cyclooct-4-en-1-yl 4-(3-((4-(2-fluoro-4-(1-((4-fluorophenyl)carbamoyl)cyclopropanecarboxamido)phenoxy)-6-methoxyquinolin-7-yl)oxy)propyl)piperazine-1-carboxylate]
[1]
  effect on MET phosphorylation: decrease in MET phosphorylation
[1]; OVCA429 cells, 0.1-1 μM, HGF stimulation, Western blot
  potency in decreasing MET phosphorylation compared with the BODIPY-FL (12) version: greater potency
Recombinant human MET
  IC50: 0.0886 µM
Recombinant human MET; [2]
  Fold Change (TCO/Foretinib) MET: 3.1
Recombinant human AXL
  IC50: 0.0725 µM
Recombinant human AXL; [2]
  Fold Change (TCO/Foretinib) AXL: 3.4
Recombinant Human RON
  IC50: 0.0827 µM
Recombinant Human RON; [2]
  Fold Change (TCO/Foretinib) RON: 4.1
Recombinant Human KDR
  IC50: 0.15 µM
Recombinant Human KDR; [2]
  Fold Change (TCO/Foretinib) KDR: 6.2
Recombinant Human PDGFRα
  IC50: 0.265 µM
Recombinant Human PDGFRα; [2]
  Fold Change (TCO/Foretinib) PDGFRα: 4.5
